According to ChEMBL document CHEMBL5724914, “Linking interpersonal differences in gut microbiota composition and drug biotransformation activity” (2024):

Assay: (§1) The drug is tested on Z-025 corresponding to rabbit gut metagenome with ENA study accession number: PRJEB37062 and ENA sample accession number: ERS12561824 for biotransformation under anaerobic condition. The drug concentrations were measured over 9 timepoints collected between 0 and 24 hours of incubation by liquid-chromatography-coupled mass spectrometry (LC–MS)
Details: 2 µM
Further: call rule not given here.

Bacterial Biotransformation	SMILES
Compound NOT metabolized	CCOc1ccccc1OCCN[C@H](C)Cc1ccc(OC)c(S(N)(=O)=O)c1.Cl [TAMSULOSIN HYDROCHLORIDE]
Compound NOT metabolized	COc1cc2nc(N3CCN(C(=O)C4CCCO4)CC3)nc(N)c2cc1OC (stereo not given) [TERAZOSIN]

Assay: as §1, with “Z-023” for “Z-025”, “to” for “to rabbit gut”, “ERS12561822” for “ERS12561824”
Details: 2 µM

Bacterial Biotransformation	SMILES
Compound metabolized	CCOc1ccccc1OCCN[C@H](C)Cc1ccc(OC)c(S(N)(=O)=O)c1.Cl [TAMSULOSIN HYDROCHLORIDE]
Compound NOT metabolized	COc1cc2nc(N3CCN(C(=O)C4CCCO4)CC3)nc(N)c2cc1OC (stereo not given) [TERAZOSIN]

Assay: as §1, with “Z-022” for “Z-025”, “mouse” for “rabbit”, “ERS12561821” for “ERS12561824”
Details: 2 µM

Bacterial Biotransformation	SMILES
Compound NOT metabolized	CCOc1ccccc1OCCN[C@H](C)Cc1ccc(OC)c(S(N)(=O)=O)c1.Cl [TAMSULOSIN HYDROCHLORIDE]
Compound NOT metabolized	COc1cc2nc(N3CCN(C(=O)C4CCCO4)CC3)nc(N)c2cc1OC (stereo not given) [TERAZOSIN]

Assay: as §1, with “Z-013” for “Z-025”, “ERS12561813” for “ERS12561824”
Details: 2 µM

Bacterial Biotransformation	SMILES
Compound NOT metabolized	CCOc1ccccc1OCCN[C@H](C)Cc1ccc(OC)c(S(N)(=O)=O)c1.Cl [TAMSULOSIN HYDROCHLORIDE]
Compound NOT metabolized	COc1cc2nc(N3CCN(C(=O)C4CCCO4)CC3)nc(N)c2cc1OC (stereo not given) [TERAZOSIN]

Assay: as §1, with “Z-009” for “Z-025”, “pig” for “rabbit”, “ERS12561809” for “ERS12561824”
Details: 2 µM

Bacterial Biotransformation	SMILES
Compound NOT metabolized	CCOc1ccccc1OCCN[C@H](C)Cc1ccc(OC)c(S(N)(=O)=O)c1.Cl [TAMSULOSIN HYDROCHLORIDE]
Compound metabolized	COc1cc2nc(N3CCN(C(=O)C4CCCO4)CC3)nc(N)c2cc1OC (stereo not given) [TERAZOSIN]

Assay: as §1, with “Z-007” for “Z-025”, “rat” for “rabbit”, “ERS12561807” for “ERS12561824”
Details: 2 µM

Bacterial Biotransformation	SMILES
Compound NOT metabolized	CCOc1ccccc1OCCN[C@H](C)Cc1ccc(OC)c(S(N)(=O)=O)c1.Cl [TAMSULOSIN HYDROCHLORIDE]
Compound NOT metabolized	COc1cc2nc(N3CCN(C(=O)C4CCCO4)CC3)nc(N)c2cc1OC (stereo not given) [TERAZOSIN]

Assay: as §1, with “Z-006” for “Z-025”, “mouse” for “rabbit”, “ERS12561806” for “ERS12561824”
Details: 2 µM

Bacterial Biotransformation	SMILES
Compound NOT metabolized	CCOc1ccccc1OCCN[C@H](C)Cc1ccc(OC)c(S(N)(=O)=O)c1.Cl [TAMSULOSIN HYDROCHLORIDE]
Compound NOT metabolized	COc1cc2nc(N3CCN(C(=O)C4CCCO4)CC3)nc(N)c2cc1OC (stereo not given) [TERAZOSIN]

Assay: as §1, with “Z-004” for “Z-025”, “to” for “to rabbit gut”, “ERS12561804” for “ERS12561824”
Details: 2 µM

Bacterial Biotransformation	SMILES
Compound NOT metabolized	CCOc1ccccc1OCCN[C@H](C)Cc1ccc(OC)c(S(N)(=O)=O)c1.Cl [TAMSULOSIN HYDROCHLORIDE]
Compound NOT metabolized	COc1cc2nc(N3CCN(C(=O)C4CCCO4)CC3)nc(N)c2cc1OC (stereo not given) [TERAZOSIN]

Assay: as §1, with “WLS-350” for “Z-025”, “human” for “rabbit”, “ERS12561789” for “ERS12561824”
Details: 2 µM

Bacterial Biotransformation	SMILES
Compound NOT metabolized	CCOc1ccccc1OCCN[C@H](C)Cc1ccc(OC)c(S(N)(=O)=O)c1.Cl [TAMSULOSIN HYDROCHLORIDE]
Compound NOT metabolized	COc1cc2nc(N3CCN(C(=O)C4CCCO4)CC3)nc(N)c2cc1OC (stereo not given) [TERAZOSIN]

Assay: as §1, with “WLS-073” for “Z-025”, “human” for “rabbit”, “ERS12561749” for “ERS12561824”
Details: 2 µM

Bacterial Biotransformation	SMILES
Compound NOT metabolized	CCOc1ccccc1OCCN[C@H](C)Cc1ccc(OC)c(S(N)(=O)=O)c1.Cl [TAMSULOSIN HYDROCHLORIDE]
Compound metabolized	COc1cc2nc(N3CCN(C(=O)C4CCCO4)CC3)nc(N)c2cc1OC (stereo not given) [TERAZOSIN]

Assay: as §1, with “WLS-052” for “Z-025”, “human” for “rabbit”, “ERS12561747” for “ERS12561824”
Details: 2 µM

Bacterial Biotransformation	SMILES
Compound NOT metabolized	CCOc1ccccc1OCCN[C@H](C)Cc1ccc(OC)c(S(N)(=O)=O)c1.Cl [TAMSULOSIN HYDROCHLORIDE]
Compound NOT metabolized	COc1cc2nc(N3CCN(C(=O)C4CCCO4)CC3)nc(N)c2cc1OC (stereo not given) [TERAZOSIN]

Assay: as §1, with “WLS-010” for “Z-025”, “human” for “rabbit”, “ERS12561743” for “ERS12561824”
Details: 2 µM

Bacterial Biotransformation	SMILES
Compound NOT metabolized	CCOc1ccccc1OCCN[C@H](C)Cc1ccc(OC)c(S(N)(=O)=O)c1.Cl [TAMSULOSIN HYDROCHLORIDE]
Compound NOT metabolized	COc1cc2nc(N3CCN(C(=O)C4CCCO4)CC3)nc(N)c2cc1OC (stereo not given) [TERAZOSIN]

Details: human gut metagenome, 24 h, 2 µM

Bacterial Biotransformation	SMILES
Compound NOT metabolized	CCOc1ccccc1OCCN[C@H](C)Cc1ccc(OC)c(S(N)(=O)=O)c1.Cl [TAMSULOSIN HYDROCHLORIDE]
Compound metabolized	COc1cc2nc(N3CCN(C(=O)C4CCCO4)CC3)nc(N)c2cc1OC (stereo not given) [TERAZOSIN]

Details: human gut metagenome, 24 h, 2 µM
Remark: another data set of the same source

Bacterial Biotransformation	SMILES
Compound NOT metabolized	CCOc1ccccc1OCCN[C@H](C)Cc1ccc(OC)c(S(N)(=O)=O)c1.Cl [TAMSULOSIN HYDROCHLORIDE]
Compound NOT metabolized	COc1cc2nc(N3CCN(C(=O)C4CCCO4)CC3)nc(N)c2cc1OC (stereo not given) [TERAZOSIN]

Details: human gut metagenome, 24 h, 2 µM
Remark: another data set of the same source

Bacterial Biotransformation	SMILES
Compound NOT metabolized	CCOc1ccccc1OCCN[C@H](C)Cc1ccc(OC)c(S(N)(=O)=O)c1.Cl [TAMSULOSIN HYDROCHLORIDE]
Compound NOT metabolized	COc1cc2nc(N3CCN(C(=O)C4CCCO4)CC3)nc(N)c2cc1OC (stereo not given) [TERAZOSIN]

Details: human gut metagenome, 24 h, 2 µM
Remark: another data set of the same source

Bacterial Biotransformation	SMILES
Compound NOT metabolized	CCOc1ccccc1OCCN[C@H](C)Cc1ccc(OC)c(S(N)(=O)=O)c1.Cl [TAMSULOSIN HYDROCHLORIDE]
Compound NOT metabolized	COc1cc2nc(N3CCN(C(=O)C4CCCO4)CC3)nc(N)c2cc1OC (stereo not given) [TERAZOSIN]

Details: human gut metagenome, 24 h, 2 µM
Remark: another data set of the same source

Bacterial Biotransformation	SMILES
Compound metabolized	CCOc1ccccc1OCCN[C@H](C)Cc1ccc(OC)c(S(N)(=O)=O)c1.Cl [TAMSULOSIN HYDROCHLORIDE]
Compound metabolized	COc1cc2nc(N3CCN(C(=O)C4CCCO4)CC3)nc(N)c2cc1OC (stereo not given) [TERAZOSIN]

Details: human gut metagenome, 24 h, 2 µM
Remark: another data set of the same source

Bacterial Biotransformation	SMILES
Compound NOT metabolized	CCOc1ccccc1OCCN[C@H](C)Cc1ccc(OC)c(S(N)(=O)=O)c1.Cl [TAMSULOSIN HYDROCHLORIDE]
Compound NOT metabolized	COc1cc2nc(N3CCN(C(=O)C4CCCO4)CC3)nc(N)c2cc1OC (stereo not given) [TERAZOSIN]

Details: human gut metagenome, 24 h, 2 µM
Remark: another data set of the same source

Bacterial Biotransformation	SMILES
Compound NOT metabolized	CCOc1ccccc1OCCN[C@H](C)Cc1ccc(OC)c(S(N)(=O)=O)c1.Cl [TAMSULOSIN HYDROCHLORIDE]
Compound NOT metabolized	COc1cc2nc(N3CCN(C(=O)C4CCCO4)CC3)nc(N)c2cc1OC (stereo not given) [TERAZOSIN]

Details: human gut metagenome, 24 h, 2 µM
Remark: another data set of the same source

Bacterial Biotransformation	SMILES
Compound NOT metabolized	CCOc1ccccc1OCCN[C@H](C)Cc1ccc(OC)c(S(N)(=O)=O)c1.Cl [TAMSULOSIN HYDROCHLORIDE]
Compound metabolized	COc1cc2nc(N3CCN(C(=O)C4CCCO4)CC3)nc(N)c2cc1OC (stereo not given) [TERAZOSIN]
